Values quoted from earlier work, collected in patent US8030014B2, “Detecting agent and therapeutic agent for highly malignant breast cancer” (priority 2005, dated 2011).

Test system: breast cancer
Conditions: paclitaxel used in addition to adriamycin plus cyclophosphamide (AC); postoperative auxiliary chemotherapy

In the case of `CC(=O)O[C@H]1C(=O)[C@@]2(C)[C@H]([C@H](OC(=O)c3ccccc3)[C@]3(O)C[C@H](OC(=O)[C@H](O)[C@@H](NC(=O)c4ccccc4)c4ccccc4)C(C)=C1C3(C)C)[C@]1(OC(C)=O)CO[C@@H]1C[C@@H]2O` [paclitaxel], the “lowering of annual mortality rate over AC therapy alone” value is listed as 26%.
